For orientation: IC50 means the concentration at which inhibition is half-maximal. For orientation: CC50 means the concentration at which the toxic effect on the cells reaches its halfway point. Broadly, the EC50 is the concentration giving half of the maximal effect.

≈ marks a conversion by molar mass, not a printed value. Read-outs that look alike come from different tables or passages of the source.

In one data set the test system is H. ducreyi Strain HMC56. The experiment in a line: Antibacterial activity (MIC), strain HMC56. The class given is cell-based, Haemophilus ducreyi.
The subject of another data set is H. ducreyi Strain HMC 62. The data set can be described thus: Antibacterial activity (MIC), strain HMC 62. The class given is cell-based, Haemophilus ducreyi.
Data set [1] deals with HIV-1 clinical isolate R5 = 92TH014. The experiment in a line: Antiviral activity against HIV-1 clinical isolate R5, RT endpoint. Type of data set: cell-based. Conditions: Table 2, 6 h incubation then 6 days.
In data set [2] the test system is HIV-1 IIIB (cell-free virus). The experiment in a line: microbe, parasite or virus in culture. The class given is cell-based. The settings on record: for EC50 Cell-free HIV-1 (IIIB) / EC50: Table 8; for EC50: read-out: EC50 Cell-free HIV-1 (IIIB); for IC50: Human immunodeficiency virus 1, IIIB, read-out: IC50 Cell-Free Virus IIIB.
The test system of data set [3] is Cell-associated HIV-1, SupT1 (IIIB). The experiment in a line: Single-round infection assay, cell-associated virus SupT1 (IIIB). Type of data set: cell-based. The settings on record: for IC50: Human immunodeficiency virus 1, IIIB.
Another data set has as its system H. ducreyi Strain HMC 64. The data set can be described thus: Antibacterial activity (MIC), strain HMC 64. Type of data set: cell-based, Haemophilus ducreyi.
In data set [4] the test system is HIV-1 BaL (cell-free virus). The data set can be described thus: Single-round infection assay, cell-free virus BaL. The class given is cell-based. The settings on record: for IC50: Human immunodeficiency virus 1, BAL, read-out: IC50 Cell-Free Virus BaL.
In data set [5] the test system is Multidrug resistant virus 7324-1. The experiment in a line: Antiviral activity against multidrug resistant HIV, RT endpoint. The class given is cell-based, HIV-1. Conditions: Table 2; MDR = 7324-1; RT endpoint; 6 h incubation then 6 days.
The nature of data set [6]: Cytotoxicity (Tables 4, 6, 8).
Where [7] appears, read: Table 1, 2 h incubation, wash, 48 h culture.
Where [8] appears, read: 2 h incubation, wash, 48 h culture.
[9] abbreviates: SUP-T1, Table 1, 2 h incubation, wash, 48 h culture, read-out: IC50 Cell-Associated Virus SupT1 (IIIB).

As for `CCSCCCCCCCCCCCC(=O)OC[C@H]1O[C@@H](n2cc(C)c(=O)[nH]c2=O)C[C@@H]1F` [3′-fluoro-2′,3′-dideoxy-5′-O-(13-thiapentadecanoyl)thymidine], the “MIC (minimum inhibitory concentration)” value in the data set with H. ducreyi Strain HMC56, against H. ducreyi Strain HMC 62 and against H. ducreyi Strain HMC 64 was 125 µg/mL (≈ 257 µM) in each case. The 50% inhibitory concentration (IC50) in [1] and in data set [5] was 0.002 µg/mL (≈ 0.00411 µM) in each case. Besides, the “IC50 Cell-Free Virus IIIB” value in data set [2] (setting [7]) was 0.5 µg/mL (≈ 1.03 µM). Moreover, the “IC50 Cell-Associated Virus SupT1 (IIIB)” value in data set [3] (setting [7]) is 1.1 µg/mL (≈ 2.26 µM). Further, in data set [4] (setting [7]), the “IC50 Cell-Free Virus BaL” value is under 0.1 µg/mL.

`CCCCCCCCCCCCCC(=O)OCC(NC(C)=O)C(=O)NCCC(=O)NC(CCC(=O)OC[C@H]1O[C@@H](n2cc(C)c(=O)[nH]c2=O)C[C@@H]1F)C(=O)NCC(=O)O` (some centres unmarked) [KPH-94, Myristoylserine-FLT(glutamyl)glycine]: in data set [6], the CC50 is over 100 µg/mL. In addition, in data set [2] (setting [8]), the “EC50 Cell-free HIV-1 (IIIB)” value was 9.3 µg/mL (≈ 11.1 µM) and the EC50 was 11.1 µM.

Consider `CCCCCSCCCCCCCC(=O)OC[C@H]1O[C@@H](n2cc(C)c(=O)[nH]c2=O)C[C@@H]1N=[N+]=[N-]` [3′-azido-2′,3′-dideoxy-5′-O-(9-thiatertradecanoyl)thymidine], for which the “MIC (minimum inhibitory concentration)” value in the data set with H. ducreyi Strain HMC56 was determined as 250 µg/mL (≈ 504 µM); in the data set with H. ducreyi Strain HMC 62 it was 250 µg/mL (≈ 504 µM); in the data set with H. ducreyi Strain HMC 64, 750 µg/mL (≈ 1510 µM). The “IC50 Cell-Free Virus IIIB” value in data set [2] (setting [7]) was found to be 3.7 µg/mL (≈ 7.47 µM). The “IC50 Cell-Associated Virus SupT1 (IIIB)” value in data set [3] (setting [7]) worked out at 42.0 µg/mL (≈ 84.7 µM). Further, the “IC50 Cell-Free Virus BaL” value in data set [4] (setting [7]) is listed as 8.1 ( μg/mL.

`CCCCCCCCCCCCCC(=O)OCC(NC(C)=O)C(=O)NCCC(=O)NC(CCC(=O)OC[C@H]1O[C@@H](n2cc(C)c(=O)[nH]c2=O)C[C@@H]1N=[N+]=[N-])C(=O)NCC(=O)O` (some centres unmarked) [KPH-95, Myristoylserine-AZT(glutamyl)glycine] returned a 50% cytotoxic concentration (CC50) in [6] of over 100 µg/mL. Besides, in data set [2] (setting [8]), the “EC50 Cell-free HIV-1 (IIIB)” value stood at 54.5 µg/mL (≈ 63.1 µM) and the EC50 was 63.1 µM.

For the molecule `[N-]=[N+]=NCCCCCCCCCCCC(=O)OC[C@H]1O[C@@H](n2cc(F)c(N)nc2=O)CS1` [5′-O-(12-azidododecanoyl)-2′,3′-dideoxy-5-fluoro-3′-thiacytidine], the values for the IC50 in [2] (setting [7]), in data set [3] (setting [9]) and in [4] (setting [7]) were 0.39 µg/mL (≈ 0.829 µM), 4.3 µg/mL (≈ 9.14 µM) and 0.11 µg/mL (≈ 0.234 µM), respectively.

With `CCSCCCCCCCCCCCC(=O)OC[C@H]1O[C@@H](n2cc(F)c(N)nc2=O)CS1` [5′-O-(13-thiapentadecanoyl)-2′,3′-dideoxy-5-fluoro-3′-thiacytidine], the values for the IC50 in data set [2] (setting [7]), in data set [3] (setting [9]) and in data set [4] (setting [7]) were 0.024 µg/mL (≈ 0.049 µM), 2.4 µg/mL (≈ 4.9 µM) and 0.02 µg/mL (≈ 0.0408 µM), respectively.

On to `CCCCCCCCCCCCCC(=O)OC[C@H]1O[C@@H](n2cc(C)c(=O)[nH]c2=O)C[C@@H]1F` [3′-fluoro-2′,3′-dideoxy-5′-O-(tetradecanoyl)thymidine], for which the concentration for half-maximal inhibition (IC50) in data set [1] was found to be 0.003 µg/mL (≈ 0.0066 µM); in data set [5], 0.002 µg/mL (≈ 0.0044 µM). For the same molecule, in [2] (setting [7]), the “IC50 Cell-Free Virus IIIB” value worked out at 0.3 µg/mL (≈ 0.66 µM). Further, the “IC50 Cell-Associated Virus SupT1 (IIIB)” value in [3] (setting [7]) worked out at 2.9 µg/mL (≈ 6.38 µM). In data set [4] (setting [7]), the “IC50 Cell-Free Virus BaL” value amounted to 0.5 µg/mL (≈ 1.1 µM).

For “Sodium cellulose sulfate-succinate-AZT (17.2%) [CS-Suc-AZT]”, in [2] (Table 4), the “EC50 Cell-Free Virus IIIB” value was found to be 2.2 µg/mL. In addition, in data set [3] (Table 4), the “EC50 Cell-Associated Virus SupT1-IIIB” value was 74.8 µg/mL. For the same molecule, in data set [4] (Table 4), the “EC50 Cell-Free Virus BaL” value was determined as 9.9 µg/mL.

`CCCCCCCCCCCCCC(=O)NCCCCC(NC(=O)CCNC(=O)C(CCC(=O)OC[C@H]1O[C@@H](n2cc(C)c(=O)[nH]c2=O)C[C@@H]1F)NC(C)=O)C(=O)O` (some centres unmarked) [KPH-91, FLT(Glutamyl)-myrsitoyllysine] came in with a CC50 in data set [6] of over 100 µg/mL. Besides, in [2] (setting [8]), the “EC50 Cell-free HIV-1 (IIIB)” value came out at 8.7 µg/mL (≈ 10.5 µM) and the concentration giving a half-maximal response (EC50) amounted to 10.5 µM.

As to `Cc1cn([C@H]2C[C@H](F)[C@@H](COC(=O)CCCCCCCCCCCN=[N+]=[N-])O2)c(=O)[nH]c1=O` [3′-fluoro-2′,3′-dideoxy-5′-O-(12-azidododecanoyl)thymidine], the results for the “MIC (minimum inhibitory concentration)” value in the data set with H. ducreyi Strain HMC56, in the data set on H. ducreyi Strain HMC 62 and against H. ducreyi Strain HMC 64 were 500 µg/mL (≈ 1070 µM), 125 µg/mL (≈ 267 µM) and 125 µg/mL (≈ 267 µM), respectively. Also, the IC50 in data set [1] and in [5] was 0.003 µg/mL (≈ 0.00642 µM) in each case. For the same molecule, in [2] (setting [7]), the “IC50 Cell-Free Virus IIIB” value amounted to 0.4 µg/mL (≈ 0.856 µM). In addition, in data set [3] (setting [7]), the “IC50 Cell-Associated Virus SupT1 (IIIB)” value was 5.9 µg/mL (≈ 12.6 µM). Moreover, the “IC50 Cell-Free Virus BaL” value in data set [4] (setting [7]) was determined as 0.2 µg/mL (≈ 0.428 µM).

`CCCCCCCCCCCCCC(=O)OC[C@H]1O[C@@H](n2cc(F)c(N)nc2=O)CS1` [5′-O-tetradecanoyl-2′,3′-dideoxy-5-fluoro-3′-thiacytidine]: the IC50 is 0.056 µg/mL (≈ 0.122 µM) in data set [2] (setting [7]), 1.7 µg/mL (≈ 3.71 µM) in data set [3] (setting [9]) and 0.033 µg/mL (≈ 0.0721 µM) in [4] (setting [7]).

For the molecule `CCSCCCCCCCCCCC(=O)OC[C@H]1O[C@@H](n2cc(C)c(=O)[nH]c2=O)C[C@@H]1N=[N+]=[N-]` [3′-azido-2′,3′-dideoxy-5′-O-(11-thioethylundecanoyl)thymidine], the “IC50 Cell-Free Virus IIIB” value in data set [2] (setting [7]) came out at 3.8 µg/mL (≈ 7.67 µM). For the same molecule, the “IC50 Cell-Associated Virus SupT1 (IIIB)” value in data set [3] (setting [7]) was found to be 44.9 µg/mL (≈ 90.6 µM). Further, the “IC50 Cell-Free Virus BaL” value in data set [4] (setting [7]) is 2.6 µg/mL (≈ 5.25 µM).

Turning to `CCCCCCCCCCCCCC(=O)NCCCC[C@H](NC(=O)CCNC(=O)[C@H](CCC(=O)OC[C@H]1O[C@@H](n2cc(C)c(=O)[nH]c2=O)C[C@@H]1F)NC(=O)CCCCCCCCCCCCC)C(=O)O` [KPH-92, FLT(myristoylglutamyl)-mysritoyllysine], the CC50 in data set [6] is over 100 µg/mL.

In the case of `Nc1ccn([C@@H]2CS[C@H](CO)O2)c(=O)n1` [2′,3′-dideoxy-3′-thiacytidine, reference compound], in [6], the CC50 is over 100 µg/mL. In addition, the concentration for half-maximal inhibition (IC50) was found to be 7.5 µg/mL (≈ 32.7 µM) in data set [2]; 18.4 µg/mL (≈ 80.3 µM) in data set [3] (SUP-T1, read-out: IC50 Cell-Associated Virus SupT1 (IIIB)); 2.6 µg/mL (≈ 11.3 µM) in data set [4].

`CCSCCCCCCCCCCCC(=O)OC[C@H]1O[C@@H](n2ccc(N)nc2=O)CS1` [5′-O-(13-thiapentadecanoyl)-2′,3′-dideoxy-3′-thiacytidine]: the half-maximal inhibitory concentration (IC50) in data set [2] (setting [7]) was 1.1 µg/mL (≈ 2.33 µM); in data set [3] (setting [9]), over 100 µg/mL; in data set [4] (setting [7]), under 0.1 µg/mL.

Turning to `CCCCCSCCCCCCCC(=O)OC[C@H]1O[C@@H](n2cc(C)c(=O)[nH]c2=O)C[C@@H]1F` [3′-fluoro-2′,3′-dideoxy-5′-O-(9-thiatertradecanoyl)thymidine], in data set [2] (setting [7]), the “IC50 Cell-Free Virus IIIB” value came out at 5.4 µg/mL (≈ 11.4 µM). Moreover, the “IC50 Cell-Associated Virus SupT1 (IIIB)” value in [3] (setting [7]) was over 100 µg/mL. In addition, in [4] (setting [7]), the “IC50 Cell-Free Virus BaL” value is 2.1 µg/mL (≈ 4.44 µM).

For `Cc1cn([C@H]2C=C[C@@H](COC(=O)CCCCCCCCCCCBr)O2)c(=O)[nH]c1=O` [12-bromododecanoyl-2′,3′-didehydro-2′,3′-dideoxythymidine], the “IC50 Cell-Free Virus IIIB” value in [2] (setting [7]) worked out at 7.2 µg/mL (≈ 14.8 µM). The “IC50 Cell-Associated Virus SupT1 (IIIB)” value in data set [3] (setting [7]) was over 100 µg/mL. The “IC50 Cell-Free Virus BaL” value in data set [4] (setting [7]) was found to be 1.1 µg/mL (≈ 2.27 µM).

Consider `[N-]=[N+]=NCCCCCCCCCCCC(=O)OC[C@H]1O[C@@H](n2ccc(N)nc2=O)CS1` [5′-O-(12-azidododecanoyl)-2′,3′-dideoxy-3′-thiacytidine], for which the IC50 in [2] (setting [7]) was 0.88 µg/mL (≈ 1.94 µM); in data set [3] (setting [9]) it was over 100 µg/mL; in [4] (setting [7]), 0.08 µg/mL (≈ 0.177 µM).

Take `Cc1cn([C@H]2C[C@H](F)[C@@H](COC(=O)CCCCCCCCCCCBr)O2)c(=O)[nH]c1=O` [3′-fluoro-2′,3′-dideoxy-5′-O-(12-bromododecanoyl)thymidine]: the “IC50 Cell-Free Virus IIIB” value in [2] (setting [7]) is 0.9 µg/mL (≈ 1.78 µM). Further, the “IC50 Cell-Associated Virus SupT1 (IIIB)” value in data set [3] (setting [7]) is over 100 µg/mL. Further, the “IC50 Cell-Free Virus BaL” value in data set [4] (setting [7]) is under 0.1 µg/mL.

The values are drawn from patent US9296776B2, “Substituted nucleoside derivatives with antiviral and antimicrobial properties” (Eastern Virginia Medical School, priority 2007, dated 2016).
